Among the data in patent publication US9428493B2, “Schweinfurthin analogues” (University of Iowa Research Foundation, priority 2012, dated 2016) are efflux pump substrate values, retold here.

The data set relates to efflux pump. The experiment in a line: efflux pump substrate activity. In kind it is in vitro ADME. From the text:
For the treatment of certain diseases, it may be beneficial to have a therapeutic agent that is not an efflux pump substrate. […] In one embodiment of the invention R^2 is (C1-C15)alkyl or (C2-C15) alkenyl. In one embodiment of the invention R^4 is (C1-C15)alkyl or (C2-C15)alkenyl. In one embodiment of the invention R^4 is (C1-C6)alkyl.

Take `COc1cc(/C=C/c2cc(O)c3c(CC=C(C)C)c[nH]c3c2)cc2c1O[C@]1(C)CC[C@@H](O)C(C)(C)[C@H]1C2` [Compound 10]: the efflux pump substrate result is “diminished activity as efflux pump substrates compared to Compound 4”.
In the case of `COc1cc(/C=C/c2cc(O)c3c(c2)C[C@@H]2C(C)(C)[C@H](O)CC[C@@]2(C)O3)cc2c1ccn2C` [Compound 9], the efflux pump substrate entry is reported as “diminished activity as efflux pump substrates compared to Compound 4”.
As to `COc1cc(/C=C/c2cc(O)c3ccn(C)c3c2)cc2c1O[C@]1(C)CC[C@@H](O)C(C)(C)[C@H]1C2` [Compound 7], the efflux pump substrate result was “diminished activity as efflux pump substrates compared to Compound 4”.
In the case of `COc1cc(/C=C/c2cc(OC)c3cc[nH]c3c2)cc2c1O[C@]1(C)CC[C@@H](O)C(C)(C)[C@H]1C2` [Compound 4, reference compound], the efflux pump substrate result is listed as “found to be an efflux pump substrate”.
